One block for each compound: values may come before it.
Columns and labels:
[1] = Pharmacokinetics of Compound 40 and benzene sulfonate thereof in ICR mice, PO; conditions: mouse, in vivo, PO 100 mg/kg (based on free base), 40% Hp-β-CD
[2] = tested on: haloperidol-induced stiffness; test: Haloperidol-induced Parkinson's disease stiffness model in CD-1 mice (rearing and bar tests); type: in vivo; conditions: Experiment I
From the text: Parkinson's disease (PD) is a common class of degenerative disease of the nervous system with the main pathological changes including the loss of substantia nigra dopaminergic neurons and the decrease of dopamine transmitter content, leading to tremor at rest, muscle stiffness, […], postural reflex disorders and other clinical symptoms. Haloperidol, a dopamine D2 receptor blocker, can block the dopamine D2 receptor in the striatum, leading to mouse dystonic postures, namely, stiffness and hypokinesia. This model is a recognized animal model of Parkinson's syndrome. The ameliorative effect of a test substance on the stiffness symptom of Parkinson's disease induced by haloperidol in CD-1 mice was evaluated. 57 SPF-grade male CD-1 mice (4 weeks old at the time of purchase and 8 weeks old at the time of experiment) with the weight of about 40 g were randomly divided into 5 groups, namely, a vehicle group (n=11), a group of 1 mg/kg benzene sulfonate of Compound 40 (n=11), a group of 3 mg/kg benzene sulfonate of Compound 40 (n=12), a group of 10 mg/kg benzene sulfonate of Compound 40 (n=12), and a group of 30 mg/kg benzene sulfonate of Compound 40 (n=11). 1 mg/kg haloperidol was injected subcutaneously at an injection volume of 10 ml/kg. 30 minutes after the injection, Compound 40 at each dose was intragastrically infused at a volume of 10 ml/kg. At the 1st hour and the 4th hour after the administration was completed, the rearing and bar tests were performed respectively, and the number of standings and on-bar time of the mice were counted to evaluate the ameliorative effect of Compound 40 on the stiffness symptom of haloperidol-induced Parkinson's disease in CD-1 mice. […] Firstly, the acetate of Compound 22 at each dose was intragastrically infused at a volume of 10 ml/kg. After 30 min, 1 mg/kg haloperidol was injected subcutaneously at an injection volume of 10 ml/kg. At the 1st hour and the 4th hour after the administration was completed, the rearing and bar tests were performed respectively, and the number of standings and on-bar time of the mice were counted to evaluate the ameliorative effect of the acetates of Compound 22 on the stiffness symptom of haloperidol-induced Parkinson's disease in CD-1 mice. […] Firstly, Compound 27 at each dose was intragastrically infused at a volume of 10 ml/kg. After 30 min, 1 mg/kg haloperidol was injected subcutaneously at an injection volume of 10 ml/kg. At the 1st hour and the 4th hour after the administration was completed, the rearing and bar tests were performed respectively, and the number of standings and on-bar time of the mice were counted to evaluate the ameliorative effect of Compound 27 on the stiffness symptom of haloperidol-induced Parkinson's disease in CD-1 mice. The mice were subcutaneously injected with haloperidol at abdomen at a dose of 1 mg/kg, with the concentration of a working solution of 0.1 mg/ml and an injection volume of 10 ml/kg. At the 1st hour and the 4th hour after drug intervention, the mice were put into a white transparent plastic bucket with a diameter of 20 cm and a height of 21 cm. The mice were allowed to acclimate in the bucket for 5 min before starting video recording. The spontaneous activity behaviors of the mice within 10 minutes were recorded, whereby the number of standings was counted. The more the standings, the more frequent the spontaneous exploration activities of the mice, and the lower the degree of stiffness. At the time points of 1st and 4th hours after the rearing test was completed, bar test was carried out. The mice were placed on a long wooden bar with a diameter of […] and a height of 6 cm. The mice were let to hold the wooden bar with forelimbs, only with the buttocks or hind limbs on the ground. The timing was stopped when the hind limbs left the bench top or the fore limbs left the wooden bar, and the on-bar time of the mice was recorded. Each mouse was tested 3 times, and the maximum on-bar time and the average on-bar time were counted. […]

[3] = tested on: haloperidol-induced stiffness; test: Haloperidol-induced Wistar rat stiffness model (bar test, rearing); type: in vivo, Wistar rats; conditions: for Number of standings: 1st hour after haloperidol
Experimental: Time of bar test: The stiffness of the rats was tested by the bar test. That is, a wooden bar with a diameter of 8 mm was fixed between 2 iron stands and was 10 cm from the bench top; and then, the rat's tail was grabbed to make its front paws rest on the wooden bar and its hind paws or buttocks on the ground. Generally, the rat needs to acclimate several times when it was tested for the first time. The time for the forelimbs to drop from the bar or the time for the hind limbs to leave the bench top were tested, each rat was tested 3 times. Number of standings: the number of standings of the rat was measured by the rearing test. That is, the rat was placed in a 27*52 cm cage and acclimate for 5 minutes, and the spontaneous activity behavior, i.e., the number of standings, of the rat within 10 minutes was recorded. When the rat's hind limbs stood with two forelimbs raised over the shoulders and touched the ground, one standing is counted, and the one forelimb lift was excluded. Generally, the rat would raise its forelimbs to touch the cage wall. If the rat raised its forelimbs over the shoulders several times without falling to the ground, only one standing was counted. The time of bar test was taken as a measurement index, including the average time and the maximum time. Long time indicates severe stiffness, short time indicates mild stiffness. After drug treatment, the shorter the time of bar test, the better the effect of the drug on relieving stiffness. The number of standings was counted by the rearing test. The more the number of standings, the more frequent the spontaneous exploration activity of the rat, and the lower the stiffness. The statistical analysis between groups was performed on the data by using Prism GraphPad 7.0 independent sample T test, and P<0.05 was considered as a significant difference.

[4] = Pharmacokinetics of test compounds in SD rats (15.2; IV and PO, mixed administration); type: in vivo; conditions: male, Sprague-Dawley, rat, plasma, SD rats, PO
Experimental: Administration dose: the compounds in this group were all administered in a mixed way, with 6 compounds in each group for mixed PO administration.
Blood was collected based on the blood collection points in the test protocol. 50 μL of plasma sample was added with acetonitrile (containing 5 ng/mL Verapamil) being 3 folds of the volume thereof; the resulting mixture was vortexed for 30 s, and then centrifuged for 15 min at 15,000 rpm at 4° C.; and 10μ L of supernatant was taken for LC-MS/MS analysis.
For each compound, 3 male SD rats weighing 200-220 g were fasted for one night before dosage, but had access to water.
Orally intragastric administration: before intragastric administration and at 0.083 h, 0.25 h, 0.5 h, 1 h, 2 h, 4 h, 8 h and 24 h after administration (for Compounds 40, 27, 40 and 47), or at 0.25 h, 0.5 h, 1 h, 4 h, 6 h and 8 h after administration (for Compounds 44 and 48), orbital blood was collected and put in a test tube that was treated with heparin sodium, and after centrifugation, the supernatant plasma was collected for LC-MS/MS analysis.
The plasma samples were processed according to the method for “sample treatment” and then analyzed by LC-MS/MS, accompanied with the standard curve and quality control samples. At a time point when the upper limit of quantification was exceeded, the samples were diluted 10 or 100 folds for analysis. All measured data were collected and processed by Analyst 1.6.3 software, and the data were calculated and processed with Microsoft Excel. With DAS 3.2.8 software, the pharmacokinetic parameters were calculated by the statistical moment method. The pharmacokinetic parameters mainly include Tmax, t1/2, Cmax, AUC(0-t), etc.

adenosine receptors A2A = target: T1, adenosine receptors A2A (Homo sapiens, UniProt P29274); test: TR-FRET-based cAMP accumulation assay in hADORA2A-HEK293 cells; type: cell-based; conditions: NECA at EC80, hADORA2A-HEK293, read-out: A2AR activity (IC50)
T1 construct: expressed in transfected cells; host or cells: HEK293 (hADORA2A-HEK293)
T1 sequence (P29274 whole entry): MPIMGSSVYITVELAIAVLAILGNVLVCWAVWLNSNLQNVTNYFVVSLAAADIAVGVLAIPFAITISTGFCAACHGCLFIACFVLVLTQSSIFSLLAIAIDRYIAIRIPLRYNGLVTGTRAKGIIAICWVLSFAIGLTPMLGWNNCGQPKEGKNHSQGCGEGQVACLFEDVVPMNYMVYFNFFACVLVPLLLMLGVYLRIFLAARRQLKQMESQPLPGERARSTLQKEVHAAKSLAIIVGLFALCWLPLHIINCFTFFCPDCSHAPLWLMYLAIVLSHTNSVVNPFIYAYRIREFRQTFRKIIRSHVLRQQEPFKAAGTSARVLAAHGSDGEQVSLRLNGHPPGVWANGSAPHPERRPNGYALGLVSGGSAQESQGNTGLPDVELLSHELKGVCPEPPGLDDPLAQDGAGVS
Experimental: The inhibitory effects of the test compounds on the adenosine receptors A2A were evaluated by TR-FRET-based cAMP accumulation assay. The method included, in HEK293 cells (hADORA2A-HEK293) expressing A2AR, the production of cAMP stimulated by NECA and the inhibitory effect of A2A receptor antagonists on cAMP. All cells were cultured in a complete medium at 37° C. in the presence of 5% CO2. After being digested with trypsin, the cells were collected by centrifugation at 200 g for 5 minutes. The cells were resuspended in a fresh complete medium, and then the cell viability was counted by a trypan blue exclusion method. […] The cells were diluted with Hank's buffer solution containing HEPES (5 mM), BSA stabilizer (0.1%) and Rolipram (10 μM), then added to a 384-well white non-transparent plate (cells/well, 10 μl/well), and incubated with the test compound at an appropriate concentration (11 concentrations) for 20 minutes at room temperature. Then, the A2A receptor agonist NECA (final concentration=EC80, which was determined in the same experiment performed earlier) was added to the sample, and the sample was incubated again at 37° C. for 30 minutes.
An inhibition rate (%) was calculated according to the following formula, and an IC50 value was calculated from a concentration-inhibition (%) curve after log conversion.
A curve corresponding to the dose was fitted by using XLfit software and the IC50 was determined.

[5] = Pharmacokinetics of test compounds in SD rats (15.2; IV and PO, mixed administration); type: in vivo; conditions: PO, 3 mg/kg
[6] = 10 mg/kg intragastric, 1st hour
[7] = 10 mg/kg intragastric, 4th hour
[8] = 30 mg/kg intragastric, 1st hour
[9] = 30 mg/kg intragastric, 4th hour
[10] = male, Sprague-Dawley, rat, plasma

AUC(0-t) [1]: 138000 ng·h/mL
Cmax [1]: 36000 ng/mL
Tmax [1]: 0.5 h
AUC(0-inf) ([1]; read-out: AUCINF—pred): 138000 ng·h/mL
half-life ([1]; read-out: T½ (converted)): 2.29 h
SMILES: Cn1nnc(-c2ccc(CCNc3nc(N)n4nc(-c5ccco5)nc4n3)cc2)n1.O=S(=O)(O)c1ccccc1 [Benzene sulfonate of Compound 40, N^5-(4-(2-methyl-2H-tetrazol-5-yl)phenethyl)-2-(furan-2-yl)-[1,2,4]triazolo[1,5-a][1,3,5]triazine-5,7-diamine benzene sulfonate]
Average on-bar time ([2]; 1 mg/kg intragastric, 1st hour): 237.67 ± 40.20 s
Maximum on-bar time ([2]; 1 mg/kg intragastric, 1st hour): 356.43 ± 55.79 s
Number of standings ([2]; 1 mg/kg intragastric, 1st hour): 17.00 ± 1.99
Average on-bar time ([2]; 1 mg/kg intragastric, 4th hour): 241.14 ± 31.32 s
Maximum on-bar time ([2]; 1 mg/kg intragastric, 4th hour): 361.29 ± 53.92 s
Number of standings ([2]; 1 mg/kg intragastric, 4th hour): 8.71 ± 2.68
Average on-bar time ([2]; 3 mg/kg intragastric, 1st hour): 120.05 ± 35.31 s
Maximum on-bar time ([2]; 3 mg/kg intragastric, 1st hour): 184.00 ± 50.55 s
Number of standings ([2]; 3 mg/kg intragastric, 1st hour): 17.00 ± 2.99
Average on-bar time ([2]; 3 mg/kg intragastric, 4th hour): 171.76 ± 52.86 s
Maximum on-bar time ([2]; 3 mg/kg intragastric, 4th hour): 225.14 ± 51.96 s
Number of standings ([2]; 3 mg/kg intragastric, 4th hour): 14.86 ± 1.89
Average on-bar time [2, 6]: 36.10 ± 5.88 s
Maximum on-bar time [2, 6]: 57.00 ± 11.21 s
Number of standings [2, 6]: 34.90 ± 4.75
Average on-bar time [2, 7]: 66.07 ± 13.96 s
Maximum on-bar time [2, 7]: 96.10 ± 23.06 s
Number of standings [2, 7]: 17.80 ± 4.32
Average on-bar time [2, 8]: 26.50 ± 5.88 s
Maximum on-bar time [2, 8]: 34.88 ± 6.68 s
Number of standings [2, 8]: 43.25 ± 3.89
Average on-bar time [2, 9]: 20.00 ± 1.28 s
Maximum on-bar time [2, 9]: 24.13 ± 1.67 s
Number of standings [2, 9]: 25.13 ± 3.25
Average on-bar time ([3]; 3 mg/kg intragastric): 212.67 ± 51.43 s
Maximum on-bar time ([3]; 3 mg/kg intragastric): 266.63 ± 50.73 s
Number of standings ([3]; 3 mg/kg intragastric): 1.75 ± 0.60
Average on-bar time ([3]; 10 mg/kg intragastric): 41.67 ± 16.50 s
Maximum on-bar time ([3]; 10 mg/kg intragastric): 69.67 ± 28.71 s
Number of standings ([3]; 10 mg/kg intragastric): 7.89 ± 0.98
Average on-bar time ([3]; 30 mg/kg intragastric): 12.29 ± 1.41 s
Maximum on-bar time ([3]; 30 mg/kg intragastric): 18.00 ± 2.21 s
Number of standings ([3]; 30 mg/kg intragastric): 13.00 ± 0.96

AUC(0-t) ([4]; 2 mg/kg, mixed administration (6 compounds per group)): 779 ng·h/mL
half-life ([4]; 3 mg/kg, read-out: T½ (converted)): 2.25 h
IC50 (adenosine receptors A2A): 13.9 nM
Cl_F_pred [5]: 23.1623 mL/min/kg
AUC(0-t) [5, 10]: 1500 ng·h/mL
Cmax [5, 10]: 538 ng/mL
SMILES: COCCn1nnc(-c2ccc(CCNc3nc(N)n4nc(-c5ccco5)nc4n3)cc2)n1 [Compound 47, N5-(4-(2-(2-methoxyethyl)-2H-tetrazol-5-yl)phenethyl)-2-(furan-2-yl)-[1,2,4]triazolo[1,5-a][1,3,5]triazine-5,7-diamine]
